Measurements as given in ChEMBL document CHEMBL3739277, “Design, synthesis, and antibacterial evaluation of novel azolylthioether quinolones as MRSA DNA intercalators” (2015).
Converted amounts (≈) assume the structure as drawn. The source made the active and inactive calls. The rule behind the calls is not given here.

What was measured:
[1] = tested on: Candida albicans; assay: Antifungal activity against Candida albicans ATCC10231 assessed as growth inhibition incubated at 35 degC for 24 hrs by micro broth dilution method; assay type: functional; details: ATCC10231, 24 h
[2] = tested on: Pseudomonas aeruginosa; assay: Potency index, ratio of clinafloxacin MIC to compound MIC for Pseudomonas aeruginosa ATCC27853; assay type: functional
[3] = tested on: Saccharomyces cerevisiae; assay: Antifungal activity against Saccharomyces cerevisiae ATCC9763 assessed as growth inhibition incubated at 35 degC for 24 hrs by micro broth dilution method; assay type: functional; details: ATCC9763, 24 h
[4] = tested on: Staphylococcus aureus; assay: Binding affinity to methicillin-resistant Staphylococcus aureus DNA assessed as induction of DNA intercalation by measuring as 1:1 compound-DNA complex formation in presence of Cu2+ ions by fluorescence spectroscopy
[5] = tested on: Staphylococcus aureus; assay: Binding affinity to methicillin-resistant Staphylococcus aureus DNA assessed as induction of DNA intercalation in presence of potassium iodide by fluorescence spectroscopy based Stern-Volmer plot
[6] = Antibacterial activity against Bacillus proteus ATCC13315 assessed as growth inhibition incubated at 37 degC for 24 hrs by micro broth dilution method; assay type: functional; details: ATCC13315, 24 h
[7] = Binding affinity to Cu2+ ion assessed as 1:1 compound-Cu2+ complex formation by fluorescence spectroscopy
[8] = tested on: Staphylococcus aureus; assay: Antibacterial activity against Staphylococcus aureus ATCC25923 assessed as growth inhibition incubated at 37 degC for 24 hrs by micro broth dilution method; assay type: functional; details: ATCC25923, 24 h
[9] = tested on: Escherichia coli; assay: Antibacterial activity against Escherichia coli JM109 assessed as growth inhibition incubated at 37 degC for 24 hrs by micro broth dilution method; assay type: functional; details: JM109, 24 h
[10] = tested on: Cyberlindnera jadinii; assay: Antifungal activity against Candida utilis ATCC9950 assessed as growth inhibition incubated at 35 degC for 24 hrs by micro broth dilution method; assay type: functional; details: Williopsis jadinii, ATCC9950, 24 h
[11] = tested on: Staphylococcus aureus; assay: Binding affinity to methicillin-resistant Staphylococcus aureus DNA assessed as induction of DNA intercalation by UV-visible spectroscopy
[12] = tested on: Pseudomonas aeruginosa; assay: Potency index, ratio of chloramphenicol MIC to compound MIC for Pseudomonas aeruginosa ATCC27853; assay type: functional
[13] = tested on: Micrococcus luteus; assay: Antibacterial activity against Micrococcus luteus ATCC4698 assessed as growth inhibition incubated at 37 degC for 24 hrs by micro broth dilution method; assay type: functional; details: ATCC4698, 24 h
[14] = tested on: Aspergillus flavus; assay: Antifungal activity against Aspergillus flavus ATCC204304 assessed as growth inhibition incubated at 35 degC for 24 hrs by micro broth dilution method; assay type: functional; details: ATCC204304, 24 h
[15] = tested on: Bacillus subtilis; assay: Antibacterial activity against Bacillus subtilis ATCC6633 assessed as growth inhibition incubated at 37 degC for 24 hrs by micro broth dilution method; assay type: functional; details: ATCC6633, 24 h
[16] = tested on: Staphylococcus aureus; assay: Antibacterial activity against methicillin resistant Staphylococcus aureus N315 assessed as growth inhibition incubated at 37 degC for 24 hrs by micro broth dilution method; assay type: functional; details: N315, 24 h
[17] = Antifungal activity against Candida mycoderma ATCC9888 assessed as growth inhibition incubated at 35 degC for 24 hrs by micro broth dilution method; assay type: functional; details: Kregervanrija fluxuum
[18] = tested on: Pseudomonas aeruginosa; assay: Antibacterial activity against Pseudomonas aeruginosa ATCC27853 assessed as growth inhibition incubated at 37 degC for 24 hrs by micro broth dilution method; assay type: functional; details: ATCC27853, 24 h
[19] = Antibacterial activity against Eberthella typhosa ATCC14028 assessed as growth inhibition incubated at 37 degC for 24 hrs by micro broth dilution method; assay type: functional; details: ATCC14028, 24 h

## Cn1ccnc1SCC(O)CNC1CCN(c2c(F)cc3c(=O)c(C(=O)O)cn(C4CC4)c3c2Cl)C1 (centres undefined)
[1]
  MIC80: 0.5 µg/mL (≈ 0.933 µM)
[2]
  Ratio: 4
[3]
  MIC80: 16 µg/mL (≈ 29.8 µM)
[4]
  Activity: Active
[5]
  Activity: Active
[6]
  MIC: 0.5 µg/mL (≈ 0.933 µM)
[7]
  Activity: Active
[8]
  MIC: 0.5 µg/mL (≈ 0.933 µM)
[9]
  MIC: 1 µg/mL (≈ 1.87 µM)
[10]
  MIC80: 32 µg/mL (≈ 59.7 µM)
[11]
  Activity: Dose-dependent effect
[12]
  Ratio: 64
[13]
  MIC: 0.5 µg/mL (≈ 0.933 µM)
[14]
  MIC80: 32 µg/mL (≈ 59.7 µM)
[15]
  MIC: 0.5 µg/mL (≈ 0.933 µM)
[16]
  MIC: 0.25 µg/mL (≈ 0.466 µM)
[17]
  MIC80: 1 µg/mL (≈ 1.87 µM)
[18]
  MIC: 0.25 µg/mL (≈ 0.466 µM)
[19]
  MIC: 0.5 µg/mL (≈ 0.933 µM)
